The target in test [1] is T1, neuronal nicotinic acetylcholine receptors (Rattus norvegicus, UniProt P09483+P12390).
T1 construct: crude synaptic membrane preparations from whole rat brain; from tissue; host or cells: whole rat brain, crude synaptic membranes
Description: [3H]-cytisine binding to neuronal nicotinic acetylcholine receptors, crude synaptic membranes from whole rat brain. On the procedure:
The In Vitro protocols for determination of nicotinic acetylcholine channel receptor binding potencies of ligands were determined as follows.
Washed membranes were stored at-80 °C prior to use. Frozen aliquots were slowly thawed and resuspended in 20 volumes of buffer (containing: 120 mM NaCl, 5 mM KCI, 2 mM MgCl2, 2 mM CaCl2 and 50 mM Tris-Cl, pH 7.4 @4 °C). After centrifuging at 20,000x g for 15 minutes, the pellets were resuspended in 30 volumes of buffer.
The test compounds were dissolved in water to make 10 mM stock solutions. Each solution was then diluted (1:100) with buffer (as above) and further taken through seven serial log dilutions to produce test solutions from 10^-5 to 10^-11 M.
Samples were incubated for 60 minutes at 4 °C, then rapidly filtered through Whatman GF/B filters presoaked in 0.5% polyethyleneimine using 3 x 4 mL of ice-cold buffer. The filters are counted in 4 mL of Ecolume® (ICN). Nonspecific binding was determined in the presence of 10 µM (-)-nicotine and values were expressed as a percentage of total binding. IC50 values were determined with the RS-1 (BBN) nonlinear least squares curve-fitting program and IC50 values were converted to Ki values using the Cheng and Prusoff correction (Ki=IC50/(1+[ligand]/Kd of ligand).

The subject of another test is mice. Description: Mouse hot plate paradigm (analgesic effect, latency until tenth jump). Type of test: in vivo. Conditions: ip, 0.5 h, minimally effective dose among doses tested, intraperitoneal, dosed 30 minutes prior to testing, hot plate 55 °C, cut-off 180 seconds, increase in tenth jump latency relative to control, read-out: (MED). The procedure: An in vivo protocol was utilized to determine the effectiveness of nicotinic acetylcholine receptor ligands as analgesic agents in the mouse hot plate paradigm.
Separate groups of mice, (n=8/group) were utilized for each dose group. All drugs were administered by the intraperitoneal route of administration. Test drugs were dissolved in water to make a 6.2 mM stock solution. Animals were dosed with this solution (10 mL/kg body weight) for a 62 micromol/kg dose. Lower doses were administered similarly, following serial dilution of the stock solution in half-log increments. Animals were dosed 30 minutes prior to testing in the hot plate. The hotplate utilized was an automated analgesia monitor (Model #AHP16AN, Omnitech Electronics, Inc. of Columbus, Ohio). The temperature of the hot plate was maintained at 55 °C and a cut-off time of 180 seconds was utilized. Latency until the tenth jump was recorded as the dependent measure. An increase in the tenth jump latency relative to the control was considered an effect.

The mark [2] stands for this setting: [3H]-CYT 1.25 nM, 60 minutes at 4 °C, whole rat brain membranes, Ki from IC50 by Cheng and Prusoff correction, read-out: Average Ki.

Where a name gives a salt, the structure may show the parent alone. Read-outs that look alike come from different tables or passages of the source.

In general, Ki refers to a dissociation constant, usually derived from enzyme kinetics or from competition with a known ligand.

T1 sequence (P09483 31-630): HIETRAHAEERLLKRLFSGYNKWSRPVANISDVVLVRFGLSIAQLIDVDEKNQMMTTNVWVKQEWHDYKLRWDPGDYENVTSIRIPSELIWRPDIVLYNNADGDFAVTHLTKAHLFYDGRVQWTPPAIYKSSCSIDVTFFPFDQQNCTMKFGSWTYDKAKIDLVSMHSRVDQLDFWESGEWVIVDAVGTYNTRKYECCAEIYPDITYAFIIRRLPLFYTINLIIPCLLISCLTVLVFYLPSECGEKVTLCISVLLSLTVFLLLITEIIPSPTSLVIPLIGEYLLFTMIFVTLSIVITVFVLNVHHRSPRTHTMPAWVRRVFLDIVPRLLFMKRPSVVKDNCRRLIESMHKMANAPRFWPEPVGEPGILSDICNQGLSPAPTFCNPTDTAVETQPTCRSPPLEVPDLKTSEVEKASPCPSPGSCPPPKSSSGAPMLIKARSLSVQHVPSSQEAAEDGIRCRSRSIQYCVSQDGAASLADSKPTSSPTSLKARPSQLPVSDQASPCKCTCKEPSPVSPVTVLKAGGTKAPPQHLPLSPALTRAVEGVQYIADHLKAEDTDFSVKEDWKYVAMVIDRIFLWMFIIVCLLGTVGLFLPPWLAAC
T1 sequence (P12390 25-500): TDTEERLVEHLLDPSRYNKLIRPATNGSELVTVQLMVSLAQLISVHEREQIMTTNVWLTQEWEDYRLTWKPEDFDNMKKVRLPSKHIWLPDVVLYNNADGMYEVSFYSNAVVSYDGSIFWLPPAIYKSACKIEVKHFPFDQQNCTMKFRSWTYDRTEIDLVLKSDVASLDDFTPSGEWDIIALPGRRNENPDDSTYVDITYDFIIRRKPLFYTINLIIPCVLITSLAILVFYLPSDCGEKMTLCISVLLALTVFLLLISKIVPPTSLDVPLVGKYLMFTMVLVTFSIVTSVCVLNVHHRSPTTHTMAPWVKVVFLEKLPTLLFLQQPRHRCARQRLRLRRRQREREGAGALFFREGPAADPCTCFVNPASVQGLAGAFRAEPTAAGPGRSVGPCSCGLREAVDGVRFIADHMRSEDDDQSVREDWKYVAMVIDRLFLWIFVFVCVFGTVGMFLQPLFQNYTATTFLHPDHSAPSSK

`Clc1ccc(N2C[C@@H]3C[C@H]2CN3)cn1` [Example 1, (1S,4S)-2-(6-chloro-3-pyridinyl)-2,5-diazabicyclo[2,2,1]heptane 4-methylbenzenesulfonate] gave an inhibitory constant (Ki) in test [1] of 41 pM. Further, in the test on mice, the minimal effective dose came out at 6.2 µmol/kg.
The like results for `Cc1cc(N2C[C@H]3C[C@@H]2CN3)cnc1Cl` [Example 47, (1R,4R)-2-(6-chloro-5-methyl-3-pyridinyl)-2,5-diazabicyclo[2.2.1]heptane 4-methylbenzenesulfonate] were, in that order, 9 pM and 6.2 µmol/kg.
The like results for `COc1ccc(N2C[C@H]3C[C@@H]2CN3)cn1` [Example 46, (1R,4R)-2-(6-methoxy-3-pyridinyl)-2,5-diazabicyclo[2.2.1]heptane 4-methylbenzenesulfonate] were, in that order, 250 pM and 6.2 µmol/kg.
`Brc1cncc(N2C[C@@H]3C[C@H]2CN3)c1` [Example 31, (1S,4S)-2-(5-bromo-3-pyridinyl)-2,5-diazabicyclo[2.2.1]heptane 4-methylbenzenesulfonate] came in with a Ki in test [1] of 1200 pM. For the same molecule, the minimal effective dose in the test with mice was 62 µmol/kg.
The like results for `Clc1ccc(N2CCC3CCC(C2)N3)cn1` (stereo not shown) [Example 36, 3-(6-chloro-3-pyridinyl)-3,9-diazabicyclo[4.2.1]nonane hydrochloride] were, in that order, 60 pM and 1.9 µmol/kg.
The like results for `Oc1cc(N2C[C@H]3C[C@@H]2CN3)cnc1Cl` [Example 40, (1R,4R)-2-(6-chloro-5-hydroxy-3-pyridinyl)-2,5-diazabicyclo[2.2.1]heptane 4-methylbenzenesulfonate] were, in that order, 170 pM and 19 µmol/kg.
In the same order, the values of `Oc1cncc(N2C[C@@H]3C[C@H]2CN3)c1` [Example 22, (1S,4S)-2[5-hydroxy-3-pyridinyl]-2,5-diazabicyclo[2.2.1]heptane 4-methylbenzenesulfonate] are 4100 pM and 19 µmol/kg.
`c1cncc(N2C[C@H]3C[C@@H]2CN3)c1` [Example 24, (1R,4R)-2-(3-pyridinyl)-2,5-diazabicyclo[2.2.1]heptane 4-methylbenzenesulfonate]: the affinity in test [1], expressed as Ki, was 12 pM. Further, the minimal effective dose in the test on mice was 6.2 µmol/kg.
In the same order, the values of `CN1C2CCC1CN(c1cccnc1)CC2` (stereo not shown) [Example 37, 9-methyl-3-(3-pyridinyl)-3,9-diazabicyclo[4.2.1]nonane 4-methylbenzenesulfonate] are 550 pM and 6.2 µmol/kg.
In the same order, the values of `N#CCN1C[C@H]2C[C@@H]1CN2c1ccc(Cl)nc1` [Example 27, (1R,4R)-2-(6-chloro-3-pyridinyl)-5-cyanomethyl-2,5-diazabicyclo[2.2.1]heptane 4-methylbenzenesulfonate] are 50 pM and 1.9 µmol/kg.
The like results for `c1cncc(N2CCC3CCC(C2)N3)c1` (stereo not shown) [Example 41, 3-(3-pyridinyl)-3,9-diazabicyclo[4.2,1]nonane bis(4-methylbenzenesulfonate)] were, in that order, 30 pM and 6.2 µmol/kg.
With `c1cnnc(N2C[C@H]3C[C@@H]2CN3)c1` [Example 25, (1R,4R)-2-(3-pyridazinyl)-2,5-diazabicyclo[2,2,1]heptane 4-methylbenzenesulfonate], the affinity in test [1] corresponds to a Ki of 400 pM. Further, the minimal effective dose with mice was 19 µmol/kg.
As to `c1cncc(N2CC3CNCC(C3)C2)c1` [Example 57, 3-(3-pyridinyl)-3,7-diazabicyclo[3.3.1]nonane bis(4-methylbenzenesulfonate)], the Ki in test [1] (setting [2]) was found to be 20 pM. Also, the minimal effective dose in the test on mice was determined as 1.9 µmol/kg.
As for `Clc1ccc(N2CC3CNCC(C3)C2)cn1` [Example 58, 3-(6-Chloro-3-pyridinyl)-3,7-diazabicyclo[3.3.1]nonane 4-methylbenzenesulfonate], in test [1], the affinity, expressed as Ki, was 20 pM. The minimal effective dose in the test with mice is 0.62 µmol/kg.
The like results for `Clc1ccc(N2C[C@H]3C[C@@H]2CN3)cn1` [Example 15, (1R,4R)-2-(6-chloro-3-pyridinyl)-2,5-diazabicyclo[2.2.1]heptane 4-methylbenzenesulfonate] were, in that order, 10 pM and 0.62 µmol/kg.
The like results for `Cc1cc(N2C[C@@H]3C[C@H]2CN3)nnc1Cl` [Example 4, (1S,4S)-2-(6-chloro-5-methyl-3-pyridazinyl)-2,5-diazabicyclo[2,2,1]heptane bis(4-methylbenzenesulfonate)] were, in that order, 3800 pM and 62 µmol/kg.
In the same order, the values of `N#Cc1cncc(N2C[C@H]3C[C@@H]2CN3)c1` [Example 44, (1R,4R)-2-(5-cyano-3-pyridinyl)-2,5-diazabicyclo[2,2,1]heptane 4-methylbenzenesulfonate] are 30 pM and 0.62 µmol/kg.
Take `Clc1cc(N2C[C@H]3C[C@@H]2CN3)cnc1Cl` [Example 48, (1R,4R)-2-(5,6-dichloro-3-pyridinyl)-2,5-diazabicyclo[2.2.1]heptane 4-methylbenzenesulfonate]: affinity in test [1] was put at a Ki of 10 pM. Besides, the minimal effective dose with mice is 6.2 µmol/kg.
The like results for `Fc1ccc(N2C[C@H]3C[C@@H]2CN3)cn1` [Example 33, (1R,4R)-2-(6-fluoro-3-pyridinyl)-2,5-diazabicyclo[2.2.1]heptane 4-methylbenzenesulfonate] were, in that order, 30 pM and 0.19 µmol/kg.
In the case of `Clc1ccc(N2CCC3CC2CN3)cn1` (stereo not shown) [Example 35, 2-(6-chloro-3-pyridinyl)-2,6-diazabicyclo[3.2.1]octane trihydrochloride], the Ki in test [1] (setting [2]) came out at 1500 pM. The minimal effective dose in the test with mice amounted to 19 µmol/kg.

Source of the values: patent publication EP1359152B1, “Diazabicyclic derivatives as nicotinic acetylcholine receptor ligands” (ABBOTT LABORATORIES, priority 1999, dated 2000).
